# Test results: PubChem BioAssay AID434987 (Southern Research Specialized Biocontainment Screening …, 2010)
# Activity calls are given as the source filed them. How the calls were made is not given here.
# Test system: M. tuberculosis H37Rv growth inhibition with meropenem
# Assay: dose response, H37Rv, with and without meropenem (AID 434987);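 further: growth over 7 days at 37 °C before Alamar Blue read on day 9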
# [1] = M. tuberculosis H37Rv growth inhibition, measured here: IC50 without meropenem
# [2] = M. tuberculosis H37Rv growth inhibition, measured here: IC90 without meropenem
# [3] = measured here: IC90 with meropenem
Compound,IC50,IC50 [1] [µM],IC90 [2] [µM],IC90 [3] [µM]
O=C(COc1ccc(Cl)cc1)OCC(=O)N1CCCCCC1,45.5 µM (inactive),> 100,> 100,> 100
COC(=O)c1ccc(/C=N/Nc2nc(-c3ccc(C)cc3)cs2)cc1,10.9 µM,> 100,> 100,> 100
CCCCNC(=O)c1onc(CSc2ccccc2C)c1C(=O)O,45.3 µM (inactive),81.1,> 100,50.6
COc1ccc(C(=O)n2c(SC)nc3cc4c(cc32)OCCO4)cc1,34.3 µM,> 100,> 100,> 100
CC1(C)CN=C(Nc2nc3ccccc3s2)S1,29 µM,> 100,> 100,> 50
O=C(COC(=O)C1=COCCO1)Nc1ccc2c(c1)OCO2,3.86 µM,50,> 100,> 100
COc1cc(/C=C/C(=O)NC(C)(C)C)ccc1OCc1ccccc1,> 100 µM (inactive),> 100,> 100,> 100
Cc1ccc(C)c(NC(=O)C2Cc3ccccc3CN2C(=O)OCc2ccccc2)c1 (stereo unspecified),71.3 µM (inactive),91.3,> 100,> 100
Cc1cc(C)cc(SCc2noc(C(=O)NC(C)C)c2C(=O)O)c1,25.1 µM (inactive),45.2,50.7,27.3
Cc1cc(NC(=O)CSc2nc(C(C)C)nc3sc4c(c23)CCCC4)no1,> 100 µM (inactive),> 100,> 100,> 100
Cc1ccc(Cn2c(C(CO)Nc3nc(-c4ccc(Cl)c([N+](=O)[O-])c4)cs3)nc3ccccc32)cc1 (stereo unspecified),> 100 µM (inactive),> 100,> 100,> 100
CC1CC2(CCCCC2)Nc2ccc3ccccc3c21 (stereo unspecified),49.1 µM (inactive),86.1,96,> 100
CSc1ncc(Cl)c(C(=O)Nc2cccc3ccccc23)n1,8.49 µM,43.5,> 100,> 100
Cn1c(O)c(C2=c3ccccc3=NC2=O)[nH]c1=S,16.6 µM,> 100,> 100,> 100
O=C(CSc1nnc(-c2cnccn2)n1Cc1ccco1)Nc1ccc(Br)cc1,44.2 µM (inactive),> 100,> 100,> 100
COc1cc(NC(=O)c2cccc(Cl)c2)c(OC)cc1NC(=O)CN1CCCCC1,7.42 µM,23.7,61.4,75.5
CCOC(=O)c1sc(NC(=O)CSc2n[nH]c(CC(C)C)n2)nc1C,19.3 µM (inactive),46.5,> 100,> 100
Cc1cn([C@@H](CCCCNC(=O)OC(C)(C)C)C(=O)NCCCCCCCCCCC(=O)N2CCN(C(=O)OC(C)(C)C)CC2)nn1,97.7 µM (inactive),> 100,> 100,> 100
N#CCOC(=O)/C=C/c1ccc2c(c1)OCO2,29.7 µM,> 100,> 100,> 50
COc1ccc(-c2csc(/C=C/c3ccc4c(c3)OCO4)n2)cc1OC,16.1 µM,> 100,> 100,> 100

Compound,IC50,IC50 [1] [µM],IC90 [2] [µM],IC90 [3] [µM]
O=C(NCC(c1ccco1)N1CCc2ccccc21)c1ccc([N+](=O)[O-])cc1 (stereo unspecified),> 100 µM (inactive),> 100,> 100,> 100
C[C@]12CC[C@@H]3c4ccc(OS(=O)(=O)O)cc4CC[C@H]3[C@@H]1CCC2=O,> 100 µM (inactive),> 100,> 100,> 100
O=C(OCC(=O)N1CCc2ccccc21)c1ccc(Cl)nc1,22.8 µM (inactive),44,> 100,> 100
COc1ccccc1NS(=O)(=O)c1cccc(N2CC(O)=C(c3ccccc3)C2=N)c1,8.71 µM (inactive),21.1,> 100,16
Cc1cc(F)ccc1NCC(=O)Nc1ccc(Br)cc1C,94.2 µM (inactive),98.2,> 100,> 100
O=C(COn1nnc2ccc(Cl)cc21)NC12CC3CC(CC(C3)C1)C2,> 100 µM (inactive),> 100,> 100,> 100
COc1ccc(OC)c2nc(-c3ccc4c(c3)OCO4)ccc12,17.7 µM,> 100,> 100,> 25
COc1ccc(CN(CCC#N)C(=S)NC(=O)c2ccccc2)cc1,10.6 µM,79.1,> 100,> 100
Cc1ccc(/C=C/C(=O)OCC(=O)NC(C)c2ccccc2)o1 (stereo unspecified),> 100 µM (inactive),> 100,> 100,> 100
CCC(CC)C(=O)Nc1ccc(Sc2ccc([N+](=O)[O-])cc2)cc1,> 100 µM (inactive),> 100,> 100,> 100
COc1ccc(C(=O)Nc2cccc3c2CCCC3)c(OC)c1,23.4 µM,> 100,> 100,> 100
O=C(c1cccc(Cl)c1)N1CCN(Cc2ccccc2F)CC1,> 100 µM (inactive),> 100,> 100,> 100
O=c1oc(-c2ccco2)nc2sc3c(c12)CCCCC3,9.28 µM,67.6,90.2,38.5
CCc1nnc(NC(=O)c2ccc3nc(CC)c(CC)nc3c2)s1,46.6 µM (inactive),> 100,> 100,> 100
Cc1cc2c(=O)oc(-c3ccc(Br)cc3)nc2s1,> 100 µM (inactive),> 100,> 100,> 100
CNC(=S)N/N=C(\C)c1ccc(Cl)c(Cl)c1,> 100 µM (inactive),> 100,> 100,> 100
O=C(CC(=O)c1ccccc1)Nc1ccc2c(c1)OCCO2,37.2 µM (inactive),78.9,> 100,> 100
C/C(=N\NC(=O)c1ccncc1)c1c(O)n(-c2ccccc2)c(=O)[nH]c1=O,2.81 µM (inactive),5.74,> 100,3.94
COC(=O)Cn1c2ccccc2c2nc(C)sc21,18.9 µM (inactive),25.4,44.4,27.8
O=C(NN1C(=O)C2C(C1=O)C1C=CC2C12CC2)c1ccncc1 (stereo unspecified),12.3 µM,55.9,> 100,13.9

Compound,IC50,IC50 [1] [µM],IC90 [2] [µM],IC90 [3] [µM]
O=C(c1ccccc1)N1CCC(CC2CC(c3cccc(Br)c3)=NO2)(C(=O)NCC2CCCCC2)CC1 (stereo unspecified),46.8 µM (inactive),> 100,> 100,> 100
COc1ccc(NC(=O)CSc2nncn2C)c([N+](=O)[O-])c1,44.5 µM (inactive),90.1,> 100,> 100
CC(C)Cn1c2c(c(O)c(C(=O)Nc3nccs3)c1=O)CCCC2,3.22 µM,45.7,52.4,> 100
C/C(=N/NC(=O)c1ccc(Cl)s1)c1ccc(NC(=O)COc2ccc(Cl)cc2)cc1,> 100 µM (inactive),> 100,> 100,> 100
O=C(Oc1c(-c2ccccc2)c(=O)n2c3c(cccc13)CC2)c1ccc(F)cc1,6.19 µM,54.2,> 100,34
O=C(NCc1ccc2c(c1)OCO2)Nc1ccc2ccccc2c1,78.3 µM (inactive),> 100,> 100,> 100
CCNCC(O)c1cccc(O)c1 (stereo unspecified),> 100 µM (inactive),> 100,> 100,> 100
CCOC(=O)COc1nc(-c2ccc(Cl)cc2)cc(-c2ccco2)c1C#N,3.82 µM,> 100,> 100,> 100
CN(C)c1ccc(/C=N/NC(N)=S)cc1[N+](=O)[O-],19.9 µM,> 100,> 100,> 50
CC1CCN(CCOc2ccc(OCc3ccccc3)cc2)CC1,74 µM (inactive),98.4,> 100,> 100
O=C(Nc1ccc(N2CCCCC2)cc1)c1cc([N+](=O)[O-])cc([N+](=O)[O-])c1,43.9 µM (inactive),> 100,> 100,> 100
CC(C)NC(=O)C(=O)NNC(=O)C12CC3CC(CC(C3)C1)C2,15.6 µM,81.8,> 100,> 100
CCOC(=O)c1sc(NC(=O)CN2CCCC2)c(C(=O)OCC)c1C,> 100 µM (inactive),> 100,> 100,> 100
COc1cc(NC(=O)c2ccccc2Cl)ccc1NC(=O)c1ccco1,19.6 µM (inactive),32.9,> 50,> 25
O=C(NCc1ccc2c(c1)OCO2)C(=O)NC1CCCCC1,> 100 µM (inactive),> 100,> 100,> 100
COc1ccc2[nH]cc(C(=O)CCl)c2c1,2.68 µM,9.54,31,> 100
CCOC(=O)c1c(C)n(-c2ccccc2)c2ccc(OCCN(C)C)cc12,5.45 µM,62,> 100,21.7
Cc1[nH]n(-c2ccccc2)c(=O)c1/C=N/NC(=O)c1ccoc1C,0.655 µM,> 100,> 100,3.01
Cc1ccc(C2=NN(C(=O)CN3C(=O)c4ccccc4S3(=O)=O)C(c3ccco3)C2)cc1 (stereo unspecified),> 100 µM (inactive),> 100,> 100,> 100
